US8492342B2, “Preprocalcitonin antigen T epitopes” (Institut Gustave Roussy, priority 2007, dated 2013)
pEC50: −log10 of the molar value.

Experiments:
[1] = tested on: IGR-Heu tumor cells; experiment: Lysis (4 h 51Cr-release) by CTL clones of siRNA-electroporated IGR-Heu target cells; assay type: cell-based, human; settings: CTL Heu161, FIG. 5C
Experimental: (§1) FIG. 5: Processing of the preprocalcitonin16-25 antigenic peptide involves SP and SPP. A. IGR-Heu tumor cells were incubated for 2 h at 37° C. with the serine protease inhibitor dichloroisocoumarin (DCI) at 250 μM, before addition of anti-preprocalcitonin (left panel) or anti-α-actinin-4 (right panel) CTL clones. B. Analysis of SPP mRNA expression by real-time RT-PCR analysis. Total RNA extracted from IGR-Heu tumor cells, electroporated or not with siRNA targeting SPP (siRNA-S1, siRNA-S2), was reverse-transcribed and quantified by TaqMan as described in Materials and Methods. C. Effect of SPP extinction on tumor cell recognition. Lytic activity of CTL clones Heu161 and Heu127 against IGR-Heu target cells, electroporated or not with siRNA-S1, siRNA-S2 or control siRNA, determined by a conventional 4 h ^51Cr-release assay at the indicated E/T ratios. Two representative experiments of six are shown for CTL clone Heu161. D. Production of IFNγ by Heu161 and Heu127 CTL clones stimulated with tumor cells electroporated or not with siRNA-S1 or control siRNA. E. The preprocalcitonin16-25 antigenic peptide is located at the C-terminus of the signal sequence of the calcitonin hormone precursor. […]
(§2) Cytotoxic activity was measured by a conventional 4-h ^51Cr-release assay using triplicate cultures in round-bottomed 96-well plates. Percent specific cytotoxicity was calculated conventionally; SD were <5%. […]

[2] = tested on: SPP; experiment: SPP expression in IGR-Heu cells electroporated with siRNA (real-time RT-PCR; protein); assay type: cell-based, human; settings: for SPP expression at RNA level: 50 nM siRNA, 72 h, FIG. 5B; for SPP expression at protein level: data not shown
Experimental: FIG. 5: Processing of the preprocalcitonin16-25 antigenic peptide involves SP and SPP. A. IGR-Heu tumor cells were incubated for 2 h at 37° C. with the serine protease inhibitor dichloroisocoumarin (DCI) at 250 μM, before addition of anti-preprocalcitonin (left panel) or anti-α-actinin-4 (right panel) CTL clones. B. Analysis of SPP mRNA expression by real-time RT-PCR analysis. Total RNA extracted from IGR-Heu tumor cells, electroporated or not with siRNA targeting SPP (siRNA-S1, siRNA-S2), was reverse-transcribed and quantified by TaqMan as described in Materials and Methods. C. Effect of SPP extinction on tumor cell recognition. Lytic activity of CTL clones Heu161 and Heu127 against IGR-Heu target cells, electroporated or not with siRNA-S1, siRNA-S2 or control siRNA, determined by a conventional 4 h ^51Cr-release assay at the indicated E/T ratios. Two representative experiments of six are shown for CTL clone Heu161. D. Production of IFNγ by Heu161 and Heu127 CTL clones stimulated with tumor cells electroporated or not with siRNA-S1 or control siRNA. E. The preprocalcitonin16-25 antigenic peptide is located at the C-terminus of the signal sequence of the calcitonin hormone precursor. The optimal peptide recognized by CTL clone Heu161 is boxed. Arrows indicate the signal peptidase (SP) and the approximate signal peptide peptidase (SPP) cleavage sites. The n, h and c regions in the preprocalcitonin signal peptide were predicted using SignalP 3.0 software.
For SPP inhibition, we first tried the cysteine protease inhibitor Z-LL2 ketone (Calbiochem, Darmstadt, Germany), which was reported to specifically block SPP activity (WEIHOFEN et al., J Biol Chem, 275, 30951-6, 2000). No conclusive results were obtained in functional assays. We thus used siRNA targeting human SPP, siRNA-S1 (5-GACAUGCCUGAAACAAUCAtt-3; SEQ ID NO: 3) and siRNA-S2 (5-UGAUUGUUUCAGGCAUGUCtg-3; SEQ ID NO: 4), purchased from Ambion (Austin, Tex. USA). Non-targeting siRNA (Ambion) were used as negative control (siRNA Control). Briefly, IGR-Heu cells were transfected by electroporation with 50 nM siRNA in a Gene Pulser Xcell Electroporation System (Bio-Rad; 300 V, […]) as previously described (LE FLOC'H et al., J Exp Med, 2007) and then allowed to grow for 72 h.
For SPP mRNA expression, total RNA from IGR-Heu cells, transfected or not with siRNA-S 1 and siRNA-S2 targeting SPP, was extracted, reverse-transcribed and quantified by real-time RT-PCR analysis (TaqMan). PCR primers and probe were designed by Applied Biosystems and used according to the manufacturer's recommendations. The amount of RNA sample was normalized by amplification of an endogenous control (18S). […]

[3] = tested on: IGR-Heu tumor cells; experiment: SP inhibition: lysis by CTL clones of DCI-treated IGR-Heu tumor cells; assay type: cell-based, human; settings: pre-incubation of IGR-Heu, 250 μM, 2 h 37° C.; FIG. 5A
Experimental: as §1, §2

[4] = molecular target: T1, human TAP (Homo sapiens, UniProt Q03518+Q03519); experiment: TAP involvement: CTL recognition of 293-EBNA transfectants cotransfected with ICP47; assay type: cell-based
T1 construct: endogenous in cells; host or cells: 293-EBNA cells
T1 sequence (Q03518 1-748): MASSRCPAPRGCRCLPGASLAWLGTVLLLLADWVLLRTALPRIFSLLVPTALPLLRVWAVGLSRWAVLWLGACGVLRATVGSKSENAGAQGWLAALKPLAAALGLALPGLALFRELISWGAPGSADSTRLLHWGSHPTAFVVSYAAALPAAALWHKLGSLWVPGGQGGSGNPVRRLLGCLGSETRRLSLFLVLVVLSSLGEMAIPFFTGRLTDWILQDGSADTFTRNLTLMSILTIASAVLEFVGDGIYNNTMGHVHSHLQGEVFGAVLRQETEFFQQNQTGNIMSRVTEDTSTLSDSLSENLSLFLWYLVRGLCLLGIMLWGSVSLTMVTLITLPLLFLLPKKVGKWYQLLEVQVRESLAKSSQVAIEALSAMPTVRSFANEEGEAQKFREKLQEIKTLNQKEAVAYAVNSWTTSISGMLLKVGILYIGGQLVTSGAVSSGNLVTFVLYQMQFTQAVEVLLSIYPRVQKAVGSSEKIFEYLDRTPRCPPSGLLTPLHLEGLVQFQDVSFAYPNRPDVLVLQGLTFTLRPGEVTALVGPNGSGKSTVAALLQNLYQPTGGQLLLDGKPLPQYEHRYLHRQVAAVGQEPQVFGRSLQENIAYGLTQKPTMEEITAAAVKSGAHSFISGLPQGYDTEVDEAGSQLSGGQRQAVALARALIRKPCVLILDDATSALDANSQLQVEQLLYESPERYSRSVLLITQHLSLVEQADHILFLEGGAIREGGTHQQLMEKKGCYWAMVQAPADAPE
T1 sequence (Q03519 1-686): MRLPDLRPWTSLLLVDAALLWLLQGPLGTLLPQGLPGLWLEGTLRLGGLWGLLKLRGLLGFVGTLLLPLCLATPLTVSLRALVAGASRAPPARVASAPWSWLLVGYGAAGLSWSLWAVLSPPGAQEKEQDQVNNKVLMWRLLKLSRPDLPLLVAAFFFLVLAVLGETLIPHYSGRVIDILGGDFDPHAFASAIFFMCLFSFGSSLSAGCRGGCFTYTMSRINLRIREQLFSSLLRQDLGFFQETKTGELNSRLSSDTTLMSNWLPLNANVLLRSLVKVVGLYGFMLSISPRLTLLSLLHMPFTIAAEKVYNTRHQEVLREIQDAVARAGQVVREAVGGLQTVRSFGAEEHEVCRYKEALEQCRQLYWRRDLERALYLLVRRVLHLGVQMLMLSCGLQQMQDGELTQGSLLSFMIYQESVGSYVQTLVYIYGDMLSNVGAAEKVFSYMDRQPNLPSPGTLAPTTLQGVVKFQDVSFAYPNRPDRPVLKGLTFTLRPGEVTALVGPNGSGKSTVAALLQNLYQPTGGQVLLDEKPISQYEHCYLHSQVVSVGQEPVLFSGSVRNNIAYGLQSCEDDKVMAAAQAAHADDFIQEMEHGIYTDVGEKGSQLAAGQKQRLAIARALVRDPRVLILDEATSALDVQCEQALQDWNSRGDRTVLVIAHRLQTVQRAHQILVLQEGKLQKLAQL
Experimental: FIG. 4: Processing of the preprocalcitonin16-25 peptide is proteasome- and TAP-independent. A. IGR-Heu target cells were incubated for 2 h at 37° C. in the presence or absence of the proteasome-specific inhibitor epoxomicin, and then Heu161 cells were added. The autologous Heu127 clone, recognizing on IGR-Heu a proteasome-dependent mutated α-actinin-4 peptide, was included as a positive control. TNFβ released in medium after 24 h of culture was measured as above. B. 293-EBNA cells were cotransfected with pCEP4 containing either cDNA 150 (upper panel) or the mutated α-actinin-4 cDNA (lower panel), with pcDNA3.1 containing an HLA-A*0201 construct, and with various amounts of vector pBJi-neo containing IPC47 cDNA. CTL clones Heu161 (upper panel) or Heu127 (lower panel) were then added. Controls included 293-EBNA cells transfected with HLA-A2 or pBJi-neo-IPC47 alone, and incubation of transfectants with either preprocalcitonin or α-actinin-4 peptides. Data shown are representative of four independent experiments.
The involvement of TAP was tested by cotransfecting into 293-EBNA cells constructs coding for the antigenic peptide, for HLA-A2, and for the immediate-early protein ICP47 of herpes simplex virus type 1, which binds to and inhibits human TAP (BANKS et al., Virology, 200, 236-45, 1994).

[5] = tested on: CTL clone Heu161; experiment: CTL stimulation (TNF release) by synthetic peptides loaded on HLA-A2+ MZ2-MEL.3.1 melanoma cells; assay type: cell-based, human
Experimental: FIG. 3: Identification of the antigenic peptide recognized by CTL clone Heu161. A. CTL stimulation with purified synthetic peptides. Peptides were loaded on allogeneic HLA-A2^+ MZ2-MEL.3.1 melanoma cells for 60 min at room temperature before addition of CTL clone Heu161. TNF release was measured 16 h later. Empty circles represent the results obtained with peptide SEQ ID NO: 1, full circles represent the results obtained with peptide SEQ ID NO: 2, empty squares represent the results obtained with peptide SEQ ID NO: 24, full squares represent the results obtained with peptide SEQ ID NO: 25 and empty diamonds represent the results obtained with peptide SEQ ID NO: 26. B. Lytic activity of CTL clone on peptide-pulsed cells. ^51Cr-labeled Heu-EBV-B cells were incubated over 60 min with the indicated concentrations of peptides before addition of CTL clone Heu161 at an E/T cell ratio of 10:1. Chromium release was measured after 4 h. Empty circles represent the results obtained with peptide SEQ ID NO: 1, full circles represent the results obtained with peptide SEQ ID NO: 2
TNFβ was detected by measuring the cytotoxicity of the culture medium on TNF-sensitive WEHI-164c13 cells with a MTT colorimetric assay (ESPEVIK & NISSEN-MEYER, J Immunol Methods, 95, 99-105, 1986).
We then prepared a series of calcitonin cDNA fragments truncated at their 5′ end and engineered to contain an initiation codon and a Kozak consensus sequence. […] Further trimming narrowed down the peptide-encoding region to residues 9-38 (FIG. 2B). Among a set of overlapping peptides covering this region, only two were recognized by CTL clone Heu161: VLLQAGSLHA (SEQ ID NO: 1) and LVLLQAGSLHA (SEQ ID NO: 2), which are identical, but with an additional leucine in the latter peptide. […] In a lysis assay, the decamer was slightly more efficient than the 11-mer peptide by a factor of about three (FIG. 3B). We concluded that the optimal antigenic peptide recognized by CTL clone Heu161 was VLLQAGSLHA (SEQ ID NO: 1) or preprocalcitonin16-25. This peptide corresponds exactly to the C-terminal part of the preprocalcitonin signal peptide (LE MOULLEC et al., FEBS Lett, 167, 93-7, 1984).

Molecule | sensitivity of tumor cells to lysis by anti-preprocalcitonin CTL clone [1] | SPP expression at RNA level [2] | SPP expression at protein level [2] | other results
5-GACAUGCCUGAAACAAUCAtt-3 [siRNA-S1] | strong decrease | specifically inhibit SPP expression | specifically inhibit SPP expression | 
5-UGAUUGUUUCAGGCAUGUCtg-3 [siRNA-S2] | strong decrease | specifically inhibit SPP expression | specifically inhibit SPP expression | 
O=c1oc(Cl)c(Cl)c2ccccc12 [DCI, dichloroisocoumarin] |  |  |  | effect on lysis by anti-preprocalcitonin CTL clone [3]: totally resistant to lysis; effect on recognition by anti-α-actinin-4 CTL clone [3]: only a moderate effect
ICP47: immediate-early protein ICP47 of herpes simplex virus type 1, which binds to and inhibits human TAP; expressed by cotransfection |  |  |  | effect on recognition of transfectants by anti-preprocalcitonin CTLs ([4]; cDNA 150 + HLA-A2, FIG. 4B): no detectable effect; effect on recognition of transfectants by anti-α-actinin-4 CTL clone ([4]; mutated α-actinin-4 cDNA + HLA-A2, FIG. 4B): strongly inhibited
LVLLQAGSLHA [SEQ ID NO: 2] |  |  |  | pEC50 ([5]; HLA-A2+ melanoma cells loaded 60 min, TNF release after 16 h, FIG. 3A, read-out: peptide concentration giving half-maximal effect (sensitization to recognition by CTL Heu161)): ~8.00; recognition of peptide by CTL clone Heu161 ([5]; overlapping synthetic peptides of preprocalcitonin): recognized
